The target in experiment [1] is dimeric C145A 3CL^pro single mutant (Severe acute respiratory syndrome coronavirus 2, UniProt P0DTD1, C3408A). It is filed as binding, SARS-CoV-2.
Experiment [2] concerns the target monomeric E290A/R298A 3CL^pro double mutant (Severe acute respiratory syndrome coronavirus 2, UniProt P0DTD1, E3553A/R3561A). It is filed as binding, SARS-CoV-2.

For `CC(C)(C)c1ccc(N(C(=O)c2c[nH]cn2)[C@@H](C(=O)NC2CCCCC2)c2cccnc2)cc1` [X77], the binding heat detected result in experiment [1] is on record as “No measurable heat was detected”. Moreover, in experiment [2], the binding detectable entry was “not”.

The values above are taken from PMC13347698 (Analytical Chemistry, 2026).
